test: Determination of the logP values by HPLC on a reverse-phase column (C 18); assay type: physicochemical; details: HPLC on a reverse-phase column (C 18); separated α/β isomers
Experimental: Determination of the logP Values
The logP values given in the table were determined in accordance with EEC Directive 79/831 Annex V.A8 by HPLC (high performance liquid chromatography) on a reverse-phase column (C 18). Temperature: 55° C.
Mobile phases for the determination in the acidic range (pH 3.4):
Mobile phase A: acetonitrile+1 ml of formic acid/liter. Mobile phase B: water+0.9 ml of formic acid/liter.
Gradient: from 10% mobile phase A/90% mobile phase B to 95% mobile phase A/5% mobile phase B over 4.25 min.
Calibration was carried out using unbranched alkan-2-ones (having 3 to 16 carbon atoms) with known logP values (determination of the logP values by the retention times using linear interpolation between two successive alkanones). The lambda max values were determined in the maxima of the chromatographic signals using the UV spectra from 200 nm to 400 nm.

| Structure (SMILES) | log P* |
| --- | --- |
| Cc1cc(C)c(C2=C(O)C3(CCC4(CCCO4)CC3)OC2=O)c(C)c1 (single isomer, unassigned) [Example I-2-a-5] | 3.00 |
| CCc1cc(Cl)cc(C)c1C1=C(O)C2(CCC3(CCCO3)CC2)OC1=O (single isomer, unassigned) [Example I-2-a-44] | 2.82 |
| Cc1ccc(-c2ccc(Cl)c(Cl)c2)cc1C1=C(O)C2(CCC3(CCCO3)CC2)OC1=O (stereo not shown) [Example I-2-a-12] | 3.74 |
| Cc1cc(C2=C(O)C3(CCC4(CCCO4)CC3)OC2=O)c(C)cc1Br (single isomer, unassigned) [Example I-2-a-30] | 3.28 |
| Cc1cc(C)c(C2=C(O)C3(CCC4(CCCO4)CC3)OC2=O)c(Br)c1 (single isomer, unassigned) [Example I-2-a-32] | 2.48 |
| CCc1cc(C)cc(C)c1C1=C(O)C2(CCC3(CCCO3)CC2)OC1=O (single isomer, unassigned) [Example I-2-a-15] | 3.21 |
| Cc1ccc(-c2ccc(Cl)c(Cl)c2)cc1C1=C(O)C2(CCC3(CCCO3)CC2)OC1=O (stereo not shown) [Example I-2-a-13] | 4.24 |
| COc1cc(C)cc(C)c1C1=C(O)C2(CCC3(CCCO3)CC2)OC1=O (single isomer, unassigned) [Example I-2-a-10] | 2.28 |
| CCc1cc(Br)cc(Cl)c1C1=C(O)C2(CCC3(CCCO3)CC2)OC1=O (single isomer, unassigned) [Example I-2-a-37] | 3.40 |
| CCc1cc(C)cc(Br)c1C1=C(O)C2(CCC3(CCCO3)CC2)OC1=O (single isomer, unassigned) [Example I-2-a-28] | 2.73 |
| Cc1ccc(-c2ccc(Cl)cc2)cc1C1=C(O)C2(CCC3(CCCO3)CC2)OC1=O (stereo not shown) [Example I-2-a-25] | 3.87 |
| CCc1cc(C)cc(CC)c1C1=C(O)C2(CCC3(CCCO3)CC2)OC1=O (single isomer, unassigned) [Example I-2-a-16] | 2.99 |
| CCc1cc(Cl)c(C2=C(O)C3(CCC4(CCCO4)CC3)OC2=O)c(Br)c1 (single isomer, unassigned) [Example I-2-a-38] | 2.79 |
| CCc1cc(Cl)c(C2=C(O)C3(CCC4(CCCO4)CC3)OC2=O)c(Br)c1 (single isomer, unassigned) [Example I-2-a-39] | 3.26 |
| COc1cccc(C)c1C1=C(O)C2(CCC3(CCCO3)CC2)OC1=O (single isomer, unassigned) [Example I-2-a-34] | 2.05 |
| CCc1cc(Cl)cc(C)c1C1=C(O)C2(CCC3(CCCO3)CC2)OC1=O (single isomer, unassigned) [Example I-2-a-45] | 3.34 |

| Structure (SMILES) | log P* |
| --- | --- |
| Cc1cc(C2=C(O)C3(CCC4(CCCO4)CC3)OC2=O)c(Cl)cc1Cl (single isomer, unassigned) [Example I-2-a-40] | 2.60 |
| Cc1cc(C)c(-c2ccc(Cl)cc2)cc1C1=C(O)C2(CCC3(CCCO3)CC2)OC1=O (stereo not shown) [Example I-2-a-26] | 4.15 |
| CCc1cc(Cl)cc(CC)c1C1=C(O)C2(CCC3(CCCO3)CC2)OC1=O (single isomer, unassigned) [Example I-2-a-8] | 3.09 |
| CCc1cc(C)cc(CC)c1C1=C(O)C2(CCC3(CCCO3)CC2)OC1=O (single isomer, unassigned) [Example I-2-a-17] | 3.47 |
| Cc1ccc(-c2ccc(Cl)cc2)c(C)c1C1=C(O)C2(CCC3(CCCO3)CC2)OC1=O (stereo not shown) [Example I-2-a-19] | 4.06 |
| CCc1cc(Cl)cc(CC)c1C1=C(O)C2(CCC3(CCCO3)CC2)OC1=O (single isomer, unassigned) [Example I-2-a-9] | 3.62 |
| Cc1ccc(-c2ccc(F)cc2)cc1C1=C(O)C2(CCC3(CCCO3)CC2)OC1=O (stereo not shown) [Example I-2-a-23] | 3.5 |
| CCc1cc(Br)cc(Cl)c1C1=C(O)C2(CCC3(CCCO3)CC2)OC1=O (single isomer, unassigned) [Example I-2-a-36] | 2.77 |
| Cc1cc(C)c(-c2ccc(Cl)cc2)c(C)c1C1=C(O)C2(CCC3(CCCO3)CC2)OC1=O (single isomer, unassigned) [Example I-2-a-43] | 4.32 |
| CCc1cc(Br)cc(C)c1C1=C(O)C2(CCC3(CCCO3)CC2)OC1=O (single isomer, unassigned) [Example I-2-a-7] | 2.94 |
| Cc1cc(C)c(C2=C(O)C3(CCC4(CCCO4)CC3)OC2=O)c(C)c1 (single isomer, unassigned) [Example I-2-a-4] | 2.52 |
| Cc1cc(C)c(C2=C(O)C3(CCC4(CCCO4)CC3)OC2=O)c(Br)c1 (single isomer, unassigned) [Example I-2-a-33] | 2.95 |
| CCc1cc(Br)cc(C)c1C1=C(O)C2(CCC3(CCCO3)CC2)OC1=O (single isomer, unassigned) [Example I-2-a-29] | 3.22 |
| Cc1ccc(-c2ccc(Cl)cc2)c(C)c1C1=C(O)C2(CCC3(CCCO3)CC2)OC1=O (stereo not shown) [Example I-2-a-18] | 3.52 |
| CCc1cc(C)cc(C)c1C1=C(O)C2(CCC3(CCCO3)CC2)OC1=O (single isomer, unassigned) [Example I-2-a-14] | 2.73 |
| Cc1ccc(-c2ccc(F)cc2)cc1C1=C(O)C2(CCC3(CCCO3)CC2)OC1=O (stereo not shown) [Example I-2-a-22] | 3.0 |

More lines, now with the values ahead:

| log P* | Structure (SMILES) |
| --- | --- |
| 2.99 | Cc1cc(C)c(C2=C(O)C3(CCC4(CCCO4)CC3)OC2=O)cc1C (single isomer, unassigned) [Example I-2-a-48] |
| 3.69 | Cc1ccc(-c2ccc(F)cc2)c(C)c1C1=C(O)C2(CCC3(CCCO3)CC2)OC1=O (stereo not shown) [Example I-2-a-46] |
| 3.20 | Cc1ccc(-c2ccc(F)cc2)c(C)c1C1=C(O)C2(CCC3(CCCO3)CC2)OC1=O (stereo not shown) [Example I-2-a-47] |

same assay, conditions: HPLC, reverse-phase C 18, acidic range (pH 3.4), 55° C.

| log P | Structure (SMILES) |
| --- | --- |
| 5.28 | CCOC(=O)OC1=C(c2c(CC)cc(C)cc2CC)C(=O)OC12CCC1(CCCO1)CC2 (stereo not shown) [Example I-2-c-4] |
| 4.68 | CCOC(=O)OC1=C(c2c(CC)cc(C)cc2CC)C(=O)OC12CCC1(CCCO1)CC2 (stereo not shown) [Example I-2-c-3] |
| 4.69 | CCOC(=O)OC1=C(c2c(C)cc(C)cc2C)C(=O)OC12CCC1(CCCO1)CC2 (stereo not shown) [Example I-2-c-2] |

same assay, conditions: compounds of formula (I-2-b)

| log P* | Structure (SMILES) |
| --- | --- |
| 5.17 | CCc1cc(C)cc(CC)c1C1=C(OC(=O)C(C)C)C2(CCC3(CCCO3)CC2)OC1=O (stereo not shown) [Example I-2-b-22] |
| 4.78 | Cc1ccc(C)c(C2=C(OC(=O)C(C)C)C3(CCC4(CCCO4)CC3)OC2=O)c1 (stereo not shown) [Example I-2-b-6] |
| 4.52 | Cc1cc(C)c(C2=C(OC(=O)C(C)C)C3(CCC4(CCCO4)CC3)OC2=O)c(C)c1 (stereo not shown) [Example I-2-b-7] |
| 4.96 | Cc1cc(C)c(C2=C(OC(=O)C(C)(C)C)C3(CCC4(CCCO4)CC3)OC2=O)c(C)c1 (stereo not shown) [Example I-2-b-14] |
| 6.24 | Cc1cc(C)c(-c2ccc(Cl)cc2)cc1C1=C(OC(=O)C(C)C)C2(CCC3(CCCO3)CC2)OC1=O (stereo not shown) [Example I-2-b-4] |
| 4.16 | COc1cccc(C)c1C1=C(OC(=O)C(C)(C)C)C2(CCC3(CCCO3)CC2)OC1=O (stereo not shown) [Example I-2-b-19] |
| 5.86 | Cc1ccc(-c2ccc(Cl)cc2)cc1C1=C(OC(=O)C(C)C)C2(CCC3(CCCO3)CC2)OC1=O (stereo not shown) [1-2-b-11] |
| 5.79 | CCc1cc(C)cc(CC)c1C1=C(OC(=O)C(C)C)C2(CCC3(CCCO3)CC2)OC1=O (stereo not shown) [Example I-2-b-24] |
| 5.38 | Cc1ccc(-c2ccc(F)cc2)cc1C1=C(OC(=O)C(C)C)C2(CCC3(CCCO3)CC2)OC1=O (stereo not shown) [Example I-2-b-10] |
| 5.12 | Cc1cc(C)c(C2=C(OC(=O)C(C)C)C3(CCC4(CCCO4)CC3)OC2=O)c(C)c1 (stereo not shown) [Example I-2-b-8] |
| 6.25 | CCc1cc(C)cc(CC)c1C1=C(OC(=O)C(C)(C)C)C2(CCC3(CCCO3)CC2)OC1=O (stereo not shown) [Example I-2-b-25] |
| 5.62 | CCc1cc(C)cc(CC)c1C1=C(OC(=O)C(C)(C)C)C2(CCC3(CCCO3)CC2)OC1=O (stereo not shown) [Example I-2-b-23] |
| 5.58 | Cc1cc(C)c(C2=C(OC(=O)C(C)(C)C)C3(CCC4(CCCO4)CC3)OC2=O)c(C)c1 (stereo not shown) [Example I-2-b-17] |
| 4.22 | Cc1ccc(C)c(C2=C(OC(=O)C(C)C)C3(CCC4(CCCO4)CC3)OC2=O)c1 (stereo not shown) [Example I-2-b-5] |
| 4.83 | Cc1ccc(-c2ccc(F)cc2)cc1C1=C(OC(=O)C(C)C)C2(CCC3(CCCO3)CC2)OC1=O (stereo not shown) [Example I-2-b-9] |
| 4.50 | COc1cc(C)cc(C)c1C1=C(OC(=O)C(C)(C)C)C2(CCC3(CCCO3)CC2)OC1=O (stereo not shown) [Example I-2-b-21] |
| 5.63 | Cc1ccc(-c2ccc(Cl)cc2)c(C)c1C1=C(OC(=O)C(C)C)C2(CCC3(CCCO3)CC2)OC1=O (stereo not shown) [Example I-2-b-15] |
| 4.60 | COc1cc(C)cc(C)c1C1=C(OC(=O)C(C)C)C2(CCC3(CCCO3)CC2)OC1=O (stereo not shown) [Example I-2-b-2] |
| 5.29 | Cc1ccc(-c2ccc(Cl)cc2)cc1C1=C(OC(=O)C(C)C)C2(CCC3(CCCO3)CC2)OC1=O (stereo not shown) [Example I-2-b-13] |
| 3.75 | COc1cccc(C)c1C1=C(OC(=O)C(C)C)C2(CCC3(CCCO3)CC2)OC1=O (stereo not shown) [Example I-2-b-18] |
| 5.26 | CC(C)C(=O)OC1=C(c2cc(-c3ccc(Cl)cc3)ccc2Cl)C(=O)OC12CCC1(CCCO1)CC2 (stereo not shown) [Example I-2-b-12] |

same assay, conditions: reverse-phase HPLC column (C 18); HPLC, reverse-phase C 18, acidic range (pH 3.4), 55° C.; read-out: log P

| chromatographic logP | Structure (SMILES) |
| --- | --- |
| 4.12 | COc1cc(C)cc(C)c1C1=C(OC(=O)C(C)C)[C@]2(CC[C@@]3(CCCO3)CC2)OC1=O [Example I-2-b-1] |
| 4.09 | CCOC(=O)OC1=C(c2c(C)cc(C)cc2C)C(=O)O[C@]12CC[C@]1(CCCO1)CC2 [Example I-2-c-1] |
